# Measurements as given in patent publication US20240384268A1, “Oligonucleotides” (Hudson Institute of Medical Research, priority 2021, published 2024).
# Biological target: cGAS (Homo sapiens, UniProt Q8N884)
# Assay: ISD70-driven IP-10 (and IFN-β) production in THP-1 cells, ELISA
# Type: cell-based
# Design: endogenous in cells; host or cells: THP-1 (undifferentiated)
# Details: MOE-modified ASO at 100 nM; averaged IP-10 levels relative to ISD70 condition
# Chain of cGAS (Q8N884 whole entry): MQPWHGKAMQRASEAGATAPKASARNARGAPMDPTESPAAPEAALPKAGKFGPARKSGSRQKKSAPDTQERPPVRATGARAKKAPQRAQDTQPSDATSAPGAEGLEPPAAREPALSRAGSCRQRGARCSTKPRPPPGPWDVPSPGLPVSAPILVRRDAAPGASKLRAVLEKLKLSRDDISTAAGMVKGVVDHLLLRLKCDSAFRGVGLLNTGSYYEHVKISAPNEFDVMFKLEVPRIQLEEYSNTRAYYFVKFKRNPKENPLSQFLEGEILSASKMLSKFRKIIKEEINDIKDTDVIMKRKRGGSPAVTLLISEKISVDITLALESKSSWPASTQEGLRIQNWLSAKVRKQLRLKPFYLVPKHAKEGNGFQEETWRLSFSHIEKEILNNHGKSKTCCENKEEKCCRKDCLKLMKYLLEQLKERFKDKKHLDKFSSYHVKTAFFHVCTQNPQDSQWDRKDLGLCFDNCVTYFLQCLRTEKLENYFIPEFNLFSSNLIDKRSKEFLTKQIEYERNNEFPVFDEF
row,Sequence,cGAS 100 nM
1,"AACACTTCGTGGGGTCCTTT (antisense; 2'-MOE modified, pattern not given here) [HPRT-664 MOE]",0.615
2,"AATCCGCCCAAAGGGAACTG (antisense; 2'-MOE modified, pattern not given here) [HPRT-1027 MOE]",0.494
3,"ACAACCCCTTTCACCATCCC (antisense; 2'-MOE modified, pattern not given here) [MB21D1-689 MOE]",0.658
4,"ACAGTGTTGAGATACTCGGG (antisense; 2'-MOE modified, pattern not given here) [EGFR-3652 MOE]",0.297
5,"ACCCACTTGGCAGACCATCA (antisense; 2'-MOE modified, pattern not given here) [CTNN2B-1575 MOE]",0.571
6,"ACTGACTGTCTTGAGGGTTC (antisense; 2'-MOE modified, pattern not given here) [MB21D1-1483 MOE]",0.221
7,"AGATCTGGCAGCCCATCAAC (antisense; 2'-MOE modified, pattern not given here) [CTNN2B-2516 MOE]",0.677
8,"AGGTCTTGGCTTCGTGGAGC (antisense; 2'-MOE modified, pattern not given here) [MB21D1-522 MOE]",0.118
9,"ATCCAACACTTCGTGGGGTC (antisense; 2'-MOE modified, pattern not given here) [HPRT-668 MOE]",0.744
10,"ATGTCCCCTGTTGACTGGTC (antisense; 2'-MOE modified, pattern not given here) [HPRT-489 MOE]",0.574
11,"ATGTCCCGCCACTGGATGCT (antisense; 2'-MOE modified, pattern not given here) [EGFR-727 MOE]",0.549
12,"ATGTGATGGCCTCCCATCTC (antisense; 2'-MOE modified, pattern not given here) [HPRT-333 MOE]",0.439
13,"CAACACTTCGTGGGGTCCTT (antisense; 2'-MOE modified, pattern not given here) [HPRT-665 MOE]",0.686
14,"CAAGGCCCTTCGCACTTCTT (antisense; 2'-MOE modified, pattern not given here) [EGFR-1225 MOE]",0.490
15,"CAATGTGATGGCCTCCCATC (antisense; 2'-MOE modified, pattern not given here) [HPRT-335 MOE]",0.362
16,"CACCCACTTGGCAGACCATC (antisense; 2'-MOE modified, pattern not given here) [CTNN2B-1576 MOE]",0.658
17,"CAGATAGCACCTTCAGCACT (antisense; 2'-MOE modified, pattern not given here) [CTNN2B-1294 MOE]",0.388
18,"CCAACACTTCGTGGGGTCCT (antisense; 2'-MOE modified, pattern not given here) [HPRT-666 MOE]",0.557
19,"CGTGTCTGGAAGCTTCCTTT (antisense; 2'-MOE modified, pattern not given here) [CTNN2B-808 MOE]",0.426
20,"CTCTTGAAGCATCGTATCAC (antisense; 2'-MOE modified, pattern not given here) [CTNN2B-3648 MOE]",0.791

row,Sequence,cGAS 100 nM
1,"CTGTGATCTTGACATGCTGC (antisense; 2'-MOE modified, pattern not given here) [EGFR-2790 MOE]",0.180
2,"CTTACTTTCCGAGGTGTCCA (antisense; 2'-MOE modified, pattern not given here) [CAMSAP1-1739 MOE]",0.473
3,"GAACCACGTCTGCTCTAACA (antisense; 2'-MOE modified, pattern not given here) [CAMSAP1-1635 MOE]",0.518
4,"GAGGTCTTGGCTTCGTGGAG (antisense; 2'-MOE modified, pattern not given here) [MB21D1-523 MOE]",0.380
5,"GAGTCTCTGGAGCTTCCTCT (antisense; 2'-MOE modified, pattern not given here) [CAMSAP1-2456 MOE]",0.250
6,"GATGCTCCTCGGTCTCCCTT (antisense; 2'-MOE modified, pattern not given here) [CAMSAP1-1850 MOE]",0.413
7,"GATGGCCTCCCATCTCCTTC (antisense; 2'-MOE modified, pattern not given here) [HPRT-329 MOE]",0.687
8,"GCCGCTTTTCTGTCTGGTTC (antisense; 2'-MOE modified, pattern not given here) [CTNN2B-311 MOE]",0.401
9,"GCGACTATACGCGCAATATG (antisense; 2'-MOE modified, pattern not given here) [NC5 2′MOE]",0.720
10,"GCGGAGGTCTTGGCTTCGTG (antisense; 2'-MOE modified, pattern not given here) [MB21D1-526 MOE]",0.346
11,"GCGTATTATAGCCGATTAAC (antisense; 2'-MOE modified, pattern not given here) [NC1 2′MOE]",0.504
12,"GCGTGTCTGGAAGCTTCCTT (antisense; 2'-MOE modified, pattern not given here) [CTNN2B-809 MOE]",0.241
13,"GCTTCAGGCGCTGCCTTGCC (antisense; 2'-MOE modified, pattern not given here) [CAMSAP1-2709 MOE]",0.510
14,"GGAGATTTCAGAGCAGCTTC (antisense; 2'-MOE modified, pattern not given here) [EGFR-4885 MOE]",0.466
15,"GGAGCTTCGAGGCCCCAGGC (MOE modified, pattern not given here) [MB21D1-616 MOE]",0.117
16,"GGAGGTCTTGGCTTCGTGGA (antisense; 2'-MOE modified, pattern not given here) [MB21D1-524 MOE]",0.450
17,"GGCATCCACCACGTCGTCCA (antisense; 2'-MOE modified, pattern not given here) [EGFR-3266 MOE]",0.478
18,"GGGAAAGGTTATGCAAGGTC (antisense; 2'-MOE modified, pattern not given here) [CTNN2B-916 MOE]",0.156
19,"GGTCCATACCCAAGGCATCC (antisense; 2'-MOE modified, pattern not given here) [CTNN2B-2446 MOE]",0.531
20,"GGTGGTCCACAACCCCTTTC (antisense; 2'-MOE modified, pattern not given here) [MB21D1-697 MOE]",0.292

row,Sequence,cGAS 100 nM
1,"GGTGGTGGCCACCCATCTCA (antisense; 2'-MOE modified, pattern not given here) [CTNN2B-2479 MOE]",0.456
2,"GGTGTCCTTGCACGTGGCTT (antisense; 2'-MOE modified, pattern not given here) [EGFR-1016 MOE]",0.315
3,"GTCCACATCCTGTGGCTCGT (antisense; 2'-MOE modified, pattern not given here) [CAMSAP1-2906 MOE]",0.455
4,"GTCCTTGCACGTGGCTTCGT (antisense; 2'-MOE modified, pattern not given here) [EGFR-1013 MOE]",0.374
5,"GTCTTGGCTTCGTGGAGCAG (antisense; 2'-MOE modified, pattern not given here) [MB21D1-520 MOE]",0.291
6,"GTGTCCTTGCACGTGGCTTC (antisense; 2'-MOE modified, pattern not given here) [EGFR-1015 MOE]",0.384
7,"GTGTCTTCATCGGCCCTGCC (antisense; 2'-MOE modified, pattern not given here) [CAMSAP1-2113 MOE]",0.606
8,"TAGGCACTTTGCCTCCTTCT (antisense; 2'-MOE modified, pattern not given here) [EGFR-2859 MOE]",0.378
9,"TAGTCAAGGGCATATCCTAC (antisense; 2'-MOE modified, pattern not given here) [HPRT-732 MOE]",0.848
10,"TCAAAGGACTGAGGAAAGGG (antisense; 2'-MOE modified, pattern not given here) [CAMSAP1-6273 MOE]",0.634
11,"TCCAACACTTCGTGGGGTCC (antisense; 2'-MOE modified, pattern not given here) [HPRT-667 MOE]",0.799
12,"TCGCACTTCAGTCTGAGCAG (antisense; 2'-MOE modified, pattern not given here) [MB21D1-719 MOE]",0.305
13,"TGTCCTTGCACGTGGCTTCG (antisense; 2'-MOE modified, pattern not given here) [EGFR-1014 MOE]",0.515
14,"TGTCTTCATCGGCCCTGCCT (antisense; 2'-MOE modified, pattern not given here) [CAMSAP1-2112 MOE]",0.557
15,"TGTGATGGCCTCCCATCTCC (antisense; 2'-MOE modified, pattern not given here) [HPRT-332 MOE]",0.438
16,"TTCTGCAGCTTCCTTGTCCT (antisense; 2'-MOE modified, pattern not given here) [CTNN2B-2136 MOE]",0.821
17,"TTGCACACTTCGTACCCAAA (antisense; 2'-MOE modified, pattern not given here) [CAMSAP1-4915 MOE]",0.392
18,"TTGCCATGCTGGCTCGGACT (antisense; 2'-MOE modified, pattern not given here) [CAMSAP1-2584 MOE]",0.518
19,"TTGGCTCGGCTTGCCTACTT (antisense; 2'-MOE modified, pattern not given here) [CAMSAP1-5594 MOE]",0.295
